Data taken from patent publication US20210236577A1, “LIVESTOCK FEED ADDITIVE” (DELACON BIOTECHNIK GMBH, priority 2018, published 2021).
Like-named read-outs stand apart in the source and are kept apart here. Values belong to the compound of their own block, whether it stands above or below them.

How the values were obtained:
heat shock protein HSP70 = type: cell-based, Human
From the text: ID NO:1); β-actin reverse: [NT] NO:2); HSP70 forward: [NT] ID NO:3); HSP70 reverse: [NT] ID NO:4).

[1] = system: broilers exposed to heat stress; assay: Trial IV: growth performance of broilers under heat stress, naringin dose levels vs betaine; type: in vivo, Ross 308 male broilers; conditions: for effect on body weight and daily body weight gain vs negative control: pre-heat stress period d 0 to 21
From the text: 1152 one-day old Ross 308 male broilers from a total of 1400 were used in the experiment. Any day-old broilers, showing signs of health problems, injury, or of being too small or in poor condition were excluded in the selection process. Broilers were sexed at the hatchery. All day-old chicks were individually weighted and grouped according to weight. The birds were then assigned to the 36 pens (6 repetitions of 6 treatments), and each pen initially consisted of 34 broilers. On day 4 of the experiment in each pen, the weakest 2 broilers were removed and all pens were equated to 32 birds per pen by negative selection. Birds of the negative control group were fed the basal diet without any further phytogenic additive. The reference group was fed a diet providing 500 mg/kg feed betaine from a natural betaine source (Actibeet®, Agrana). To the diets of groups 3, 4, 5 and 6 the phytogenic premixes with compound “B” were added to achieve final dietary Naringin concentrations of 12/18/24/30 mg/kg of feed.
The trial was carried out at the Delacon Research Facility (Stošíkovice na Louce, Czech Republic). Birds were kept in floor pens, each having an area of 2.1 m^2 (1,65×1,275 m; 2.03 m^2 of usable area=not counting the space occupied with the feeder), with fresh wood shavings as bedding material. Stocking density at the end of the trial was 14,78 chicks/m^2 (38.7 kg/m^2). The building was supplied with artificial, programmable lights, automated central heating and forced ventilation. Temperature was set according to the breeders' recommendations from day 1 to day 21 of age. The onset of heat stress was on day 22 of age. Thereby a cyclic heat stress regime was applied. The heat stress period was from 09:00 in the morning until 17:00 in the afternoon. The average house temperature in this period was 34° C. The “cooling night period” was from 19:00 in the evening until 07:00 in the morning. The average room temperature in this period was 26° C. The time intervals from 07:00 to 09:00 in the morning and from 17:00 to 19:00 in the evening was used to gradually increase or decrease the temperature to 34° C. and 26° C., respectively. In order to increase the humidity of the chicken house under the heat stress regime, towels on the heat panels were moistened 5 times per hour during the heat stress period. Relative humidity was maintained at about 70-80%.
Birds were fed a basal diet, based on wheat, corn, and soybean meal. For each feeding period (starter/grower, grower/finisher) feed was calculated to be iso-nutritive (Table 6). Dietary nutrient concentrations were calculated to fulfill the current recommendations of the broilers according to the breeders' recommendations. According to the applied 2-phase-feeding, a starter/grower diet was offered from days 1 to 21 and a grower/finisher diet from days 22 to 42. The composition of the diets, used in trials IV, V, VI, for the single phases and the calculated nutrient contents are given in Table. All diets were offered to the birds as pelleted feed.
The statistical analyses were performed with the software package SAS. After checking the homogeneity of the data, means were compared by the usual test procedures (Tukey test). Statistical significance was declared at P 0.05, with 0.05<P 0.10 considered as a near-significant trend.

[2] = system: broilers exposed to heat stress; assay: Trial V: growth performance of broilers under heat stress, combinations of naringin with different 1,8-cineole concentrations; type: in vivo, Ross 308 male broilers
Method: In the dose response trial for compound “B” (Trial IV) beneficial effects on the performance of the broilers under heat stress could be observed. […] Consequently in this trial the additional value of adding 1,8-Cineole (compound “A”) in a dose-dependent manner (6/12/24 mg/kg feed) to compound “B” at constantly 12 mg Naringin/kg diet was evaluated. The addition of 500 mg/kg betaine alone or 500 mg betaine+12 mg 1,8-Cineole/kg served as reference groups.
1224 one-day old Ross 308 male broilers from a total of 1400 were used in the experiment. Any day-old broilers, showing signs of health problems, injury, or of being too small or in poor condition were excluded in the selection process. Broilers were sexed at the hatchery. All day-old chicks were individually weighted and grouped according to weight. The birds were then assigned to the 36 pens (6 repetitions of 6 treatments), and each pen initially consisted of 34 broilers. On day 4 of the experiment in each pen, the weakest 2 broilers were removed and all pens were equated to 32 birds per pen by negative selection.
Birds of the negative control group were fed the basal diet without any further phytogenic additive. […]

Compound: CC12CCC(CC1)C(C)(C)O2 [A, 1,8 Cineole]
increase in HSP 70 induction compared to control cells (heat shock protein HSP70; CaCo2, 41° C. 1 hour, 7.5 mg 1,8 Cineole/L): 15% | increase of HSP 70 gene expression (heat shock protein HSP70; CaCo2, 41° C. 1 hour, 15 mg 1,8-Cineole/L): 22% | increase of HSP 70 gene expression (heat shock protein HSP70; CaCo2, 41° C. 1 hour, 30 mg 1,8-Cineole/L): 24% | increase of HSP 70 expression (heat shock protein HSP70; CaCo2, 41° C. 1 hour, highest dose tested, 45 mg 1,8-Cineole/L): 44% | increase of HSP 70 expression / induction, single substances alone vs combination (FIG. 3 E) (heat shock protein HSP70; CaCo2 under heat stress, at the tested levels (not given)): 20.8%

HSP 70 induction in CaCo2 cells over the control (in words) (heat shock protein HSP70; Caco-2): improve HSP 70 induction
Compound: Betalain [C]

Compound: C[C@@H]1O[C@@H](O[C@H]2[C@H](Oc3cc(O)c4c(c3)O[C@H](c3ccc(O)cc3)CC4=O)O[C@H](CO)[C@@H](O)[C@@H]2O)[C@H](O)[C@H](O)[C@H]1O [B, Naringin]
HSP 70 induction compared to untreated control cells (heat shock protein HSP70; CaCo2, 41° C. 1 hour, 60 mg Naringin/L, adverse effect): −23% | increase in HSP 70 induction compared to untreated control cells (heat shock protein HSP70; CaCo2, 41° C. 1 hour, Naringin 12 to 30 mg/L, significant): +24 to +27% | increase of HSP 70 induction compared to untreated control cells (heat shock protein HSP70; CaCo2, 41° C. 1 hour, lowest Naringin concentration tested (6 mg/L), not significant): +16% | performance values (body weight/weight gain/FCR) vs betaine reference group ([1]; broilers under heat stress, 12 mg/kg Naringin complete diet vs 500 mg/kg betaine): slightly better than in the betaine reference group | body weight at day 42 compared with untreated control ([1]; heat stress d22 to 42, compound B groups 12-30 mg/kg): +80 to +140 g | final body weight compared to the negative control ([1]; heat stress d22 to 42, lowest compound B dose (12 mg/kg)): +140 g | effect on body weight and daily body weight gain vs negative control ([1]; all doses 12, 18, 24 and 30 mg/kg diet): +2.79 to +13% | effect on body weight and daily body weight gain vs negative control ([1]; lowest dose 12 mg/kg, significant): +13%

Compound: C[N+](C)(C)CC(=O)[O-] [betaine, N,N,N-Trimethylammonioacetate, reference compound]
heat shock protein 70 induction compared to untreated control cells (heat shock protein HSP70; CaCo2, 41° C. 1 hour, 100, 250 and 1000 mg/L betaine): −7 to −19% | heat shock protein 70 response compared to untreated control cells (heat shock protein HSP70; CaCo2, 41° C. 1 hour, 500 and 2000 mg/L betaine, non-significant): +10 to +12% | increase of daily weight gain compared to the negative control ([2]; pre-heat stress period, betaine 500 mg/kg alone or plus 12 mg/kg compound A): 2.5% | growth promoting effect / increase of growth performance compared to the negative control ([2]; under heat stress conditions d22 to 42, betaine 500 mg/kg, all tested combinations AB): +2.0% | body weight at day 42 compared with untreated control ([1]; heat stress d22 to 42, betaine 500 mg/kg): +170 g | effect on body weight and daily body weight gain vs negative control ([1]; betaine 500 mg/kg): +4.9%
